Marks after values point to notes of the source that are not given here.
Assays:
GEF = assay: GEF-activity in membrane fractions of Caco-2 cells (RhoGEF Exchange Assay); type: cell-based
Protocol: To measure the GEF-inhibitory effect, the following cell lines were used: Caco-2 (epithelial cells from adeno-carcinoma), ECV304 (epithelial cells from bladder carcinoma) and HpMec (endothelial cells, immortalized pulmonary micro-vascular cells). All cells were grown at standard conditions (37° C., 5% CO2 and 95% relative humidity (rH)). Culture Medium used for Caco-2: DMEM+1 mM sodium pyruvate+20% FCS+1% Penicillin Streptomycin; for ECV 304: RPMI 1640+10% FCS+1% Penicillin Streptomycin; and for HpMec: IMDM+25 mM Hepes+10% Human Serum+1% Penicillin Streptomycin+1% L-Glutamine+ECGS/Heparin 2 ml. 4 h before the experiment, cells were starved by serum withdrawal. To induce GEF-activity, cells were stimulated with thrombin, lipopolysaccharide (LPS) or PMA for the indicated time in presence or absence of 50 μg/ml XIB1-a or XIB1-b. After stimulation, membrane fractions were prepared by using the commercial available “Compartemental Protein Extraction Kit” from Biochain institutes. Membrane fractions were prepared according to the manufacturer instructions. GEF-activity in membrane lysates was determined by using “RhoGEF Exchange Assay Biochem Kit” from Cytoskeleton Inc. according to manufacturer instructions. GEF-activity was measured as fluorescence at using the Fluoroskan Ascent FL 2.6 from Thermo Electron Corporation. The excitation Filter wavelength was set at 355 nm and the emission filter wavelength at 460 nm.

GTP-bound RhoA = assay: GTP-associated active RhoA in Caco-2 membrane fraction (western blot); type: cell-based
Protocol: To measure the GTP-associated active RhoA, the following cell lines were used: Caco-2, ECV304 and HpMec. All cells were grown at standard conditions (37° C., 5% CO2 and 95% rH). 4 h before the experiment, cells were starved by serum withdrawal. To induce GEF-activity, cells were stimulated with thrombin, LPS or PMA for the indicated time in presence or absence of 50 μg/ml XIB1-a or XIB1-b. After stimulation, membrane fractions were prepared by using the commercial available “Compartemental Protein Extraction Kit” from Biochain Institutes. Membrane fractions were prepared according to the manufacturer instructions. The membrane fraction was separated on 15% polyacrylamide gel according to standard procedures of gel electrophoresis. The gels were afterwards blotted on a nitrocellulose membrane according to standard procedures of western blotting. GTP-bound RhoA was detected using RhoA-GTP monoclonal antibody from NewEast Inc. in a dilution of 1:5000. Protein bands were analyzed with the Dolphin-1D Gel analysis system (Wealtec).

[1] = test system: Phosphorylated Myosin Light Chain (MLC) and actin stress fibers; assay: MLC phosphorylation and actin stress fiber formation in HpMec cells (microscopy score); type: cell-based
Protocol: To measure MLC phosphorylation and actin stress fiber formation, the following cell lines were used: Caco-2, ECV304 and HpMec. All cells were grown at standard conditions (37° C., 5% CO2 and 95% rH). Culture Medium used: for Caco-2: DMEM+1 mM sodium pyruvate+20% FCS+1% Penicillin Streptomycin; for ECV 304: RPMI 1640+10% FCS+1% Penicillin Streptomycin; and for HpMec: IMDM+25 mM Hepes+10% Human Serum+1% Penicillin Streptomycin+1% L-Glutamine+ECGS/Heparin 2 ml. 4 h before the experiment, cells were starved by serum withdrawal. To induce GEF-activity, cells were stimulated with thrombin, LPS or PMA for the indicated time in presence or absence of 50 μg/ml XIB1-a or XIB1-b. After stimulation, cells were fixed using 4% PFA. Phospho MLC was detected by using the “rabbit anti phosphor-myosin light chain antibody” from Chemicon in a concentration of 3 μl/ml in PBS (Gibco) supplemented with 0.1% Triton X-100. As detection antibody, the Alexa 448 tagged “anti Rabbit IgG Antibody” from Invitrogen was used in a concentration of 0.5 μl/ml in PBS (Gibco) supplemented with 0.1% Triton X-100. Aktin was detected using TRITC-labeled Phalloidin in a concentration of 0.5 μl/ml in PBS (Gibco) supplemented with 0.1% Triton. Stained cells were analyzed by using a Zeiss Laser Scan microscope. Evaluation of the cyto-skeletal activation was performed by 2 independent observers that were blinded to the conditions. Evaluation criteria were set as follows:
Actin: parallel actin bundles absent=0; distinct bundle formation=1; prominent parallel bundles=2; Phospho-MLC: present at cell poles=0; slight co-localization with actin bundles=1; prominent co-localization with actin bundles=2

LPS induced lung injury = assay: LPS induced lung injury, bronchoalveolar lavage; type: in vivo; details: mice; for effect on barrier function in the LPS-inhalation model (neutrophils and albumin in BALF): equal in groups treated intraperitoneally and intratracheally; for counts of neutrophils in the BALF (mean +/ SD) / albumine content of BALFs (mean +/ SD): n = 20
Protocol: Male C57Bl/6 Mice (Charles River, Germany) were kept at the animal facility of the Medical University of Vienna, feed with standard diet and water was provided ad libitum. All interventions were performed according to the guide lines of AAALAC (Association for Assessment and Accreditation of Laboratory Animal Care). All experiment were approved by the Ethic committee of the Medical University of Vienna. Mice were anesthetized with isoflouran and treated with 100 ng of LPS (E. coli O55:B5, Sigma Aldrich) intranasally. XIB1-a or XIB1-b was applied either intra-peritoneally (2×2 mg/kg) or via inhalation (2×4 mg/kg), first application was performed concomitantly with LPS administration, the second application was performed 1 h after the LPS inhalation.
The trachea was exposed through a midline incision and canulated with a sterile 20-gauge catheter (BD Venflon™, Becton Dickinson Infusion Therapy, Helsingborg, Sweden). Bilateral broncho-alveolar lavage fluid (BALF) was gained by instilling two 0.5 ml aliquots of sterile saline. Approximately 0.9-1 ml BALF was retrieved per mouse. Total cell numbers were counted from each sample using a hemo-cytometer (Türck chamber), BALF differential cell counts were done on cytospin preparations stained with Giemsa. For protein measurements, BALF was diluted 1:2 in buffer containing 300 mM NaCl, 30 mM Tris, 2 mM MgCl2, 2 mM CaCl2, and Pepstatin A, Leupeptin and Aprotinin (all 20 ng/ml; pH 7.4). Protein levels in BALF were measured using the BCA protein kit according to the manufacturer's instructions (Pierce, Rockford, Ill.).
In addition, the same set-up as described above was used for comparing the impact of XIB1-b compared to Bβ15-42 (PLoS ONE (2009), 4(4): e5391), a peptide derived from fibrin having the sequence […] (SEQ ID NO: 41). Bβ15-42 was added in the same manner as XIB1-b. Again, protein content and cell count of BALF was measured.

[2] = CaCo-2, PMA 1 μg/ml, 1 min, with or without peptide 50 μg/ml
[3] = CaCo-2, PMA 1 μg/ml, 5 min, with or without peptide 50 μg/ml
[4] = CaCo-2, no stimulus, 1 min, peptide 50 μg/ml
[5] = CaCo-2, no stimulus, 5 min, peptide 50 μg/ml
[6] = Thrombin 1 U/ml, 1 min, with or without peptide 50 μg/ml
[7] = Thrombin 1 U/ml, 5 min, with or without peptide 50 μg/ml
[8] = no stimulus, 1 min, peptide 50 μg/ml
[9] = no stimulus, 5 min, peptide 50 μg/ml
[10] = 6 h after LPS administration, intraperitoneal application (2×2 mg/kg)
[11] = 6 h after LPS administration, intratracheal application

Sequence | GEF-activity, relative values compared to unstimulated control (Mean) (GEF; [2]) | GEF-activity, relative values compared to unstimulated control (Mean) (GEF; [3]) | GEF-activity, relative values compared to unstimulated control (Mean) (GEF; [4]) | GEF-activity, relative values compared to unstimulated control (Mean) (GEF; [5]) | GTP-bound RhoA, relative values compared to unstimulated control (Mean) (GTP-bound RhoA; [2]) | GTP-bound RhoA, relative values compared to unstimulated control (Mean) (GTP-bound RhoA; [3]) | GTP-bound RhoA, relative values compared to unstimulated control (Mean) (GTP-bound RhoA; [4]) | GTP-bound RhoA, relative values compared to unstimulated control (Mean) (GTP-bound RhoA; [5]) | MLC phosphorylation and actin stress fiber formation, evaluation score (Mean) [1, 6] | MLC phosphorylation and actin stress fiber formation, evaluation score (Mean) [1, 7] | MLC phosphorylation and actin stress fiber formation, evaluation score (Mean) [1, 8] | MLC phosphorylation and actin stress fiber formation, evaluation score (Mean) [1, 9] | effect on barrier function in the LPS-inhalation model (neutrophils and albumin in BALF) (LPS induced lung injury) | counts of neutrophils in the BALF (mean +/ SD) (LPS induced lung injury; comparison with Bβ15-42 (Table 6), 6 h after LPS, intratracheal plus intraperitoneal application) | albumine content of BALFs (mean +/ SD) (LPS induced lung injury; [10]) [µg/mL] | counts of neutrophils in the BALF (mean +/ SD) (LPS induced lung injury; [10]) | albumine content of BALFs (mean +/ SD) (LPS induced lung injury; [11]) [µg/mL] | counts of neutrophils in the BALF (mean +/ SD) (LPS induced lung injury; [11])
GRRPGGASGG (/note=“Description of artificial sequence cingulin-derived peptide XIB1-a”) | 1.4* | 1.5 | 1 | 1 | 1.4* | 1.3* | 1 | 1 | 1* | 0.3* | 0 | 0 | beneficial effect |  |  |  |  | 
GRRPLGGISGG (/note=“Description of artificial sequence cingulin-derived peptide XIB1-b”) | 1.4* | 1.5 | 1 | 1 | 1.4* | 1.3* | 1 | 1 | 1* | 0.3* | 0 | 0 | beneficial effect | 15 +/− 15 neutrophils/ml (× 10^3) | 120 ± 12 | 25 +/− 22 neutrophils/ml (× 10^3) | 98 ± 20 | 28 +/− 23 neutrophils/ml (× 10^3)

Reference: patent US9012403B2, “Peptides as active agents to stabilize biological barriers” (XiberScience GmbH, priority 2010, dated 2015)
